The text below walks through data of patent publication US10723741B1, “DNA polymerase IIIC inhibitors and use thereof” (Acurx Pharmaceuticals, LLC, priority 2018, dated 2020).

One may read the MIC as the lowest concentration that inhibits growth of the organism.

Molecules are shown by their SMILES. In brackets after ≈: the same amount, converted by molar mass.

What all share (type): cell-based
Test [1] concerns Staphylococcus aureus NRS384 (MRSA). The experiment in a line: Broth microdilution MIC, S. aureus NRS384 (MRSA). Conditions: broth microdilution, 37° C., 20 hours; for MIC: Staphylococcus aureus, read-out: MIC NRS 384 (MRSA). On the set-up: MIC NRS 384 (MRSA): unit not given here. The method in brief:
(§1)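 Two-fold dilutions from 64 to 0.0625 μg/ml final, 1% DMSO, were inoculated at ~5.0×10^5 cfu/ml in the strain's test medium and kept 20 h at 37 °C in ambient atmosphere. Colonies were grown on MHA, with S. pneumoniae on blood agar under 5% CO2.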

Test [2] deals with Staphylococcus aureus ATCC 29213 (MSSA). In words: Broth microdilution MIC, S. aureus ATCC 29213 (MSSA). To be noted: broth microdilution, 37° C., 20 hours, read-out: MIC S. aureus ATCC 29213 (MSSA). An outline of the steps: as §1
(In general: Broth dilution looks for growth in wells or tubes with falling amounts of substance.)

The test system of test [3] is Enterococcus faecalis ATCC 29212. The experiment in a line: Broth microdilution MIC, E. faecalis ATCC 29212. To be noted: ATCC29212, broth microdilution, 37° C., 20 hours, read-out: MIC E. faecalis ATCC 29212. An outline of the steps:
as §1

Test [4] relates to Enterococcus faecium ATCC 700221 (VRE). In words: Broth microdilution MIC, E. faecium ATCC 700221 (VRE). To be noted: broth microdilution, 37° C., 20 hours; for MIC: Enterococcus faecium, read-out: MIC E. faecium ATCC 700221 (VRE). On the set-up: MIC E. faecium ATCC 700221 (VRE): unit: ug/mL. An outline of the steps: as §1
The test system of test [5] is Streptococcus pneumoniae ATCC 49619. In words: Broth microdilution MIC, S. pneumoniae ATCC 49619. To be noted: ATCC49619, broth microdilution, 37° C., 20 hours, read-out: MIC S. pneumoniae ATCC 49619. The method in brief: as §1
The subject of test [6] is Bacillus subtilis ATCC 6633. The experiment in a line: Broth microdilution MIC, B. subtilis ATCC 6633. Conditions: ATCC6633, broth microdilution, 37° C., 20 hours, read-out: MIC B. subtilis ATCC 6633. An outline of the steps:
as §1

The test system of test [7] is Escherichia coli ATCC 25922. The experiment in a line: Broth microdilution MIC, E. coli ATCC 25922 (MHIIB w & w/o 4 mM EDTA). To be noted: broth microdilution, 37° C., 20 hours; for MIC: Escherichia coli, ATCC25922, without EDTA, read-out: MIC E. coli ATCC 25922; for MIC E. coli ATCC 25922 + 4 mM EDTA: with 4 mM EDTA. The method in brief: as §1

For the compound `CC(C)(C)NS(=O)(=O)CCn1ncc2nc(NCc3ccc(Cl)c(Cl)c3)[nH]c(=O)c21` [Compound 238, N-(tert-butyl)-2-(5-((3,4-dichlorobenzyl)amino)-7-oxo-6,7-dihydro-1H-pyrazolo[4,3-d]pyrimidin-1-yl)ethanesulfonamide], the MIC was found to be 4 µg/mL (≈ 8.45 µM) in test [1]; 8 µg/mL (≈ 16.9 µM) in test [2]; 8 µg/mL (≈ 16.9 µM) in test [3]; 2 µg/mL (≈ 4.22 µM) in test [4]; 8 µg/mL (≈ 16.9 µM) in test [5]; 4 µg/mL (≈ 8.45 µM) in test [6]. In addition, in test [7], the MIC is greater than 64 µg/mL. Further, the “MIC E. coli ATCC 25922 + 4 mM EDTA” value in test [7] was greater than 64 µg/mL.

Take `CC(C(=O)O)n1ncc2nc(NCc3ccc(Cl)c(Cl)c3)[nH]c(=O)c21` (stereo not shown) [Compound 226, 2-(5-((3,4-dichlorobenzyl)amino)-7-oxo-6,7-dihydro-1H-pyrazolo[4,3-d]pyrimidin-1-yl)propanoic acid]: the MIC was 64 µg/mL (≈ 167 µM) in test [1]; greater than 64 µg/mL in test [2]; greater than 64 µg/mL in test [3]; 64 µg/mL (≈ 167 µM) in test [4]; greater than 64 µg/mL in test [5]; 64 µg/mL (≈ 167 µM) in test [6]. The MIC in test [7] was greater than 64 µg/mL. Further, in test [7], the “MIC E. coli ATCC 25922 + 4 mM EDTA” value is greater than 64 µg/mL.

In the case of `O=c1[nH]c(NCc2ccc(Cl)c(Cl)c2)nc2cnn(C[C@H]3NC[C@H](O)[C@@H](O)[C@@H]3O)c12` [Compound 96, 5-((3,4-Dichlorobenzyl)amino)-1-(((2R,3R,4R,5 S)-3,4,5-trihydroxypiperidin-2-yl)methyl)-1H-pyrazolo[4,3-d]pyrimidin-7(6H)-one], the MIC in test [1] was greater than 64 µg/mL; in test [2], greater than 64 µg/mL; in test [3] it was greater than 64 µg/mL; in test [4] it was 64 µg/mL (≈ 141 µM); in test [5], 64 µg/mL (≈ 141 µM); in test [6] it was greater than 64 µg/mL. For the same compound, in test [7], the MIC is greater than 64 µg/mL. Also, the “MIC E. coli ATCC 25922 + 4 mM EDTA” value in test [7] worked out at 32 µg/mL.

Turning to `Cc1cccnc1C(=O)N1CCC(n2ncc3nc(NCc4ccc(Cl)c(Cl)c4)[nH]c(=O)c32)CC1.Cl` [Compound 262, 5-((3,4-Dichlorobenzyl)amino)-1-(1-(3-methylpicolinoyl)piperidin-4-yl)-1H-pyrazolo[4,3-d]pyrimidin-7(6H)-one hydrochloride], the MIC amounted to 4 µg/mL in test [1]; 4 µg/mL in test [2]; 4 µg/mL in test [3]; 2 µg/mL in test [4]; 4 µg/mL in test [5]; 1 µg/mL in test [6]. Moreover, the MIC in test [7] is greater than 64 µg/mL. The “MIC E. coli ATCC 25922 + 4 mM EDTA” value in test [7] was greater than 64 µg/mL.

Regarding `Cl.Cl.O=c1[nH]c(NCc2ccc(Cl)c(Cl)c2)nc2cnn(C3CCN(CC4CCCNC4)CC3)c12` (stereo not shown) [Compound 251, 5-((3,4-dichlorobenzyl)amino)-1-(1-(piperidin-3-ylmethyl)piperidin-4-yl)-1H-pyrazolo[4,3-d]pyrimidin-7(6H)-one dihydrochloride], the MIC in test [1] was found to be 16 µg/mL; in test [2] it was 16 µg/mL; in test [3], 16 µg/mL; in test [4], 16 µg/mL; in test [5], 8 µg/mL; in test [6] it was 4 µg/mL. In test [7], the MIC is greater than 64 µg/mL. Moreover, the “MIC E. coli ATCC 25922 + 4 mM EDTA” value in test [7] worked out at 64 µg/mL.

Turning to `Cn1nc(C#N)c2nc(NCc3ccc(Cl)c(Cl)c3)[nH]c(=O)c21` [Compound 45, 5-((3,4-dichlorobenzyl)amino)-1-methyl-7-oxo-6,7-dihydro-1H-pyrazolo[4,3-d]pyrimidine-3-carbonitrile], the “MIC NRS 384 (MRSA)” value in test [1] was 4/4. The MIC in test [2] is 4 µg/mL (≈ 11.5 µM); in test [3], 4 µg/mL (≈ 11.5 µM); in test [5] it was 16 µg/mL (≈ 45.8 µM); in test [6], 2 µg/mL (≈ 5.73 µM); in test [7], greater than 64 µg/mL. Also, the “MIC E. faecium ATCC 700221 (VRE)” value in test [4] was 2/2. Moreover, in test [7], the “MIC E. coli ATCC 25922 + 4 mM EDTA” value stood at 64 µg/mL.

For the compound `Cn1nc(C2CCCO2)c2nc(NCc3ccc(Cl)c(Cl)c3)[nH]c(=O)c21` (stereo not shown) [Compound 47, 5-((3,4-dichlorobenzyl)amino)-1-methyl-3-(tetrahydrofuran-2-yl)-1H-pyrazolo[4,3-d]pyrimidin-7(6H)-one], the MIC was 16 µg/mL (≈ 40.6 µM) in test [1]; 16 µg/mL (≈ 40.6 µM) in test [2]; greater than 64 µg/mL in test [3]; 16 µg/mL (≈ 40.6 µM) in test [4]; 32 µg/mL (≈ 81.2 µM) in test [5]; 8 µg/mL (≈ 20.3 µM) in test [6]. Further, the MIC in test [7] was greater than 64 µg/mL. Further, the “MIC E. coli ATCC 25922 + 4 mM EDTA” value in test [7] is greater than 64 µg/mL.

Turning to `Cl.O=C(c1cc[nH]n1)N1CCC(n2ncc3nc(NCc4ccc(Cl)c(Cl)c4)[nH]c(=O)c32)CC1` [Compound 271, 1-(1-(1H-pyrazole-3-carbonyl)piperidin-4-yl)-5-((3,4-dichlorobenzyl)amino)-1H-pyrazolo[4,3-d]pyrimidin-7(6H)-one hydrochloride], the MIC stood at 8 µg/mL in test [1]; 8 µg/mL in test [2]; 4 µg/mL in test [3]; 4 µg/mL in test [4]; 4 µg/mL in test [5]; 2 µg/mL in test [6]. Further, in test [7], the MIC is greater than 64 µg/mL. In addition, in test [7], the “MIC E. coli ATCC 25922 + 4 mM EDTA” value is greater than 64 µg/mL.

Take `Cl.N=C(N)NCCOCCn1ncc2nc(NCc3ccc(Cl)c(Cl)c3)[nH]c(=O)c21` [Compound 293, 1-(2-(2-(5-((3,4-Dichlorobenzyl)amino)-7-oxo-6,7-dihydro-1H-pyrazolo[4,3-d]pyrimidin-1-yl)ethoxy)ethyl)guanidine hydrochloride]: the MIC in test [1] was 16 µg/mL; in test [2], 16 µg/mL; in test [3], 64 µg/mL; in test [4] it was greater than 64 µg/mL; in test [5], 16 µg/mL; in test [6], 8 µg/mL. Moreover, in test [7], the MIC was greater than 64 µg/mL. In addition, the “MIC E. coli ATCC 25922 + 4 mM EDTA” value in test [7] came out at 32 µg/mL.

For `Cl.O=c1[nH]c(NCc2ccc(Cl)c(Cl)c2)nc2cnn(CCc3nnc(CO)o3)c12` [Compound 234, 5-((3,4-dichlorobenzyl)amino)-1-(2-(5-(hydroxymethyl)-1,3,4-oxadiazol-2-yl)ethyl)-1H-pyrazolo[4,3-d]pyrimidin-7(6H)-one hydrochloride], the MIC in test [1] is 64 µg/mL; in test [2] it was 64 µg/mL; in test [3] it was 32 µg/mL; in test [4] it was 8 µg/mL; in test [5] it was 16 µg/mL; in test [6], 16 µg/mL. Further, the MIC in test [7] was greater than 64 µg/mL. Moreover, the “MIC E. coli ATCC 25922 + 4 mM EDTA” value in test [7] is greater than 64 µg/mL.

In the case of `CCc1[nH]c(CNc2nc3cnn(C)c3c(=O)[nH]2)nc1Cl.Cl` [Compound 38, 5-(((4-Chloro-5-ethyl-1H-imidazol-2-yl)methyl)amino)-1-methyl-1H-pyrazolo[4,3-d]pyrimidin-7(6H)-one hydrochloride], the MIC in test [1], in test [2], in test [3], in test [4], in test [5] and in test [6] was greater than 64 µg/mL in each case. In addition, in test [7], the MIC was greater than 64 µg/mL. Also, the “MIC E. coli ATCC 25922 + 4 mM EDTA” value in test [7] is greater than 64 µg/mL.

With `Cn1nc(C(=O)O)c2nc(NCc3ccc(Cl)c(Cl)c3)[nH]c(=O)c21` [Compound 41, 5-((3,4-dichlorobenzyl)amino)-1-methyl-7-oxo-6,7-dihydro-1H-pyrazolo[4,3-d]pyrimidine-3-carboxylic acid], the MIC in test [1], in test [2], in test [3], in test [4], in test [5] and in test [6] was greater than 64 µg/mL in each case. In test [7], the MIC was greater than 64 µg/mL. Also, in test [7], the “MIC E. coli ATCC 25922 + 4 mM EDTA” value is greater than 64. ug/ml.

In the case of `O=c1[nH]c(NCc2ccc(Cl)c(Cl)c2)nc2cnn(CCOCCOCCO)c12` [Compound 115, 5-((3,4-Dichlorobenzyl)amino)-1-(2-(2-(2-hydroxyethoxy)ethoxy)ethyl)-1H-pyrazolo[4,3-d]pyrimidin-7(6H)-one], the MIC in test [1] stood at 32 µg/mL (≈ 72.3 µM); in test [2], 32 µg/mL (≈ 72.3 µM); in test [3], 32 µg/mL (≈ 72.3 µM); in test [4], 8 µg/mL (≈ 18.1 µM); in test [5], 16 µg/mL (≈ 36.2 µM); in test [6] it was 8 µg/mL (≈ 18.1 µM). Further, the MIC in test [7] is greater than 64 µg/mL. For the same compound, the “MIC E. coli ATCC 25922 + 4 mM EDTA” value in test [7] was greater than 64 µg/mL.

In the case of `COCCOCn1ncc2nc(NCc3ccc(Cl)c(Cl)c3)[nH]c(=O)c21` [Compound 138, 5-((3,4-dichlorobenzyl)amino)-1-((2-methoxyethoxy)methyl)-1H-pyrazolo[4,3-d]pyrimidin-7(6H)-one], the MIC in test [1] is 2 µg/mL (≈ 5.02 µM); in test [2] it was 2 µg/mL (≈ 5.02 µM); in test [3] it was 4 µg/mL (≈ 10 µM); in test [4], 2 µg/mL (≈ 5.02 µM); in test [5] it was 2 µg/mL (≈ 5.02 µM); in test [6], 1 µg/mL (≈ 2.51 µM). In test [7], the MIC is greater than 64 µg/mL. Besides, in test [7], the “MIC E. coli ATCC 25922 + 4 mM EDTA” value was greater than 64 µg/mL.
